# Laboratory results as given in ChEMBL document CHEMBL1137802, “Specific antioxidant activity of caffeoyl derivatives and other natural phenolic compounds: LDL protection against oxidation and decrease in the proinflammatory lysophosphatidylcholine production” (J Nat Prod, 2001).
# Assays:
# Assay type in all cases: functional, cell-free
# [1] = Antioxidant activity against Cu2+-induced lipid peroxidation in human plasma LDL assessed as vitamin E consumption at 10 umol/L preincubated for 1 hr before Cu2+ challenge measured after 90 mins
# [2] = Antioxidant activity against Cu2+-induced lipid peroxidation in human plasma LDL assessed as conjugated diene formation at 20 umol/L preincubated for 1 hr before Cu2+ challenge measured after 270 mins
# [3] = Antioxidant activity against Cu2+-induced lipid peroxidation in human plasma LDL assessed as conjugated diene formation at 10 umol/L preincubated for 1 hr before Cu2+ challenge measured after 360 mins
# [4] = Antioxidant activity against Cu2+-induced lipid peroxidation in human plasma LDL assessed as vitamin E consumption at 5 umol/L preincubated for 1 hr before Cu2+ challenge measured after 120 mins
# [5] = Antioxidant activity against Cu2+-induced lipid peroxidation in human plasma LDL assessed as maximal compound concentration at 20 umol/L preincubated for 1 hr before Cu2+ challenge measured after 30 mins relative to compound present at 0 min
# [6] = Antioxidant activity against Cu2+-induced lipid peroxidation in human plasma LDL assessed as conjugated diene formation at 20 umol/L preincubated for 1 hr before Cu2+ challenge measured after 180 mins
# [7] = Antioxidant activity against Cu2+-induced lipid peroxidation in human plasma LDL assessed as conjugated diene formation at 5 umol/L preincubated for 1 hr before Cu2+ challenge measured after 90 mins
# [8] = Antioxidant activity against Cu2+-induced lipid peroxidation in human plasma LDL assessed as maximal compound concentration at 10 umol/L preincubated for 1 hr before Cu2+ challenge measured after 210 mins relative to compound present at 0 min
# [9] = Antioxidant activity against Cu2+-induced lipid peroxidation in human plasma LDL assessed as vitamin E consumption at 5 umol/L preincubated for 1 hr before Cu2+ challenge measured after 30 mins
# [10] = Antioxidant activity against Cu2+-induced lipid peroxidation in human plasma LDL assessed as lysophosphatidylcholine formation at 5 umol/L preincubated for 1 hr before Cu2+ challenge measured after 120 mins
# [11] = Antioxidant activity against Cu2+-induced lipid peroxidation in human plasma LDL assessed as lysophosphatidylcholine formation at 10 umol/L preincubated for 1 hr before Cu2+ challenge measured after 120 mins
# [12] = Antioxidant activity against Cu2+-induced lipid peroxidation in human plasma LDL assessed as vitamin E consumption at 20 umol/L preincubated for 1 hr before Cu2+ challenge measured after 45 mins
# [13] = Antioxidant activity against Cu2+-induced lipid peroxidation in human plasma LDL assessed as vitamin E consumption at 10 umol/L preincubated for 1 hr before Cu2+ challenge measured after 150 mins
# [14] = Antioxidant activity against Cu2+-induced lipid peroxidation in human plasma LDL assessed as vitamin E consumption at 5 umol/L preincubated for 1 hr before Cu2+ challenge measured after 45 mins
# [15] = Antioxidant activity against Cu2+-induced lipid peroxidation in human plasma LDL assessed as lysophosphatidylcholine formation at 5 umol/L preincubated for 1 hr before Cu2+ challenge measured after 180 mins
# [16] = Antioxidant activity against Cu2+-induced lipid peroxidation in human plasma LDL assessed as lysophosphatidylcholine formation at 20 umol/L preincubated for 1 hr before Cu2+ challenge measured after 60 mins
# [17] = Antioxidant activity against Cu2+-induced lipid peroxidation in human plasma LDL assessed as lysophosphatidylcholine formation at 20 umol/L preincubated for 1 hr before Cu2+ challenge measured after 270 mins
# [18] = Antioxidant activity against Cu2+-induced lipid peroxidation in human plasma LDL assessed as lysophosphatidylcholine formation at 5 umol/L preincubated for 1 hr before Cu2+ challenge measured after 360 mins
# [19] = Antioxidant activity against Cu2+-induced lipid peroxidation in human plasma LDL assessed as vitamin E consumption at 20 umol/L preincubated for 1 hr before Cu2+ challenge measured after 270 mins
# [20] = Antioxidant activity against Cu2+-induced lipid peroxidation in human plasma LDL assessed as conjugated diene formation at 10 umol/L preincubated for 1 hr before Cu2+ challenge measured after 270 mins
# [21] = Antioxidant activity against Cu2+-induced lipid peroxidation in human plasma LDL assessed as maximal compound concentration at 10 umol/L preincubated for 1 hr before Cu2+ challenge measured after 45 mins relative to compound present at 0 min
# [22] = Antioxidant activity against Cu2+-induced lipid peroxidation in human plasma LDL assessed as lysophosphatidylcholine formation at 10 umol/L preincubated for 1 hr before Cu2+ challenge measured after 150 mins
# [23] = Antioxidant activity against Cu2+-induced lipid peroxidation in human plasma LDL assessed as lysophosphatidylcholine formation at 20 umol/L preincubated for 1 hr before Cu2+ challenge measured after 180 mins
# [24] = Antioxidant activity against Cu2+-induced lipid peroxidation in human plasma LDL assessed as lysophosphatidylcholine formation at 10 umol/L preincubated for 1 hr before Cu2+ challenge measured after 90 mins
# [25] = Antioxidant activity against Cu2+-induced lipid peroxidation in human plasma LDL assessed as lysophosphatidylcholine formation at 20 umol/L preincubated for 1 hr before Cu2+ challenge measured after 90 mins
# [26] = Antioxidant activity against Cu2+-induced lipid peroxidation in human plasma LDL assessed as vitamin E consumption at 10 umol/L preincubated for 1 hr before Cu2+ challenge measured after 270 mins
# [27] = Antioxidant activity against Cu2+-induced lipid peroxidation in human plasma LDL assessed as vitamin E consumption at 10 umol/L preincubated for 1 hr before Cu2+ challenge measured after 120 mins
# [28] = Antioxidant activity against Cu2+-induced lipid peroxidation in human plasma LDL assessed as lysophosphatidylcholine formation preincubated for 1 hr before Cu2+ challenge
# [29] = Antioxidant activity against Cu2+-induced lipid peroxidation in human plasma LDL assessed as maximal compound concentration at 20 umol/L preincubated for 1 hr before Cu2+ challenge measured after 120 mins relative to compound present at 0 min
# [30] = Antioxidant activity against Cu2+-induced lipid peroxidation in human plasma LDL assessed as vitamin E consumption at 5 umol/L preincubated for 1 hr before Cu2+ challenge measured after 15 mins
# [31] = Antioxidant activity against Cu2+-induced lipid peroxidation in human plasma LDL assessed as maximal compound concentration at 5 umol/L preincubated for 1 hr before Cu2+ challenge measured after 45 mins relative to compound present at 0 min
# [32] = Antioxidant activity against Cu2+-induced lipid peroxidation in human plasma LDL assessed as maximal compound concentration at 20 umol/L preincubated for 1 hr before Cu2+ challenge measured after 150 mins relative to compound present at 0 min
# [33] = Antioxidant activity against Cu2+-induced lipid peroxidation in human plasma LDL assessed as vitamin E consumption at 10 umol/L preincubated for 1 hr before Cu2+ challenge measured after 30 mins
# [34] = Antioxidant activity against Cu2+-induced lipid peroxidation in human plasma LDL assessed as conjugated diene formation at 5 umol/L preincubated for 1 hr before Cu2+ challenge measured after 360 mins
structure (smiles),measurement,setting,value
CC(C)(Sc1cc(C(C)(C)C)c(O)c(C(C)(C)C)c1)Sc1cc(C(C)(C)C)c(O)c(C(C)(C)C)c1,Activity,[1],0%
same,Activity,[2],2.6%
same,Activity,[3],100%
same,Activity,[4],0%
same,Activity,[5],91.8%
same,Activity,[6],2.6%
same,Activity,[7],37.9%
same,Activity,[8],21.6%
same,Activity,[9],15.5%
same,Activity,[10],10.6%
same,Activity,[11],1.3%
same,Activity,[12],7.5%
same,Activity,[13],0%
same,Activity,[14],7.5%
same,Activity,[15],19.4%
same,Activity,[16],1.2%
same,Activity,[17],1.5%
same,Activity,[18],29.1%
same,Activity,[19],0%
same,Activity,[20],79.9%
same,Activity,[21],73%
same,Activity,[22],3%
same,Activity,[23],1.5%
same,Activity,[24],0%
same,Activity,[25],1.1%
same,Activity,[26],0%
same,Activity,[27],0%
same,Activity,[28],Dose-dependent effect
same,Activity,[29],43.2%
same,Activity,[30],45%
same,Activity,[31],114%
same,Activity,[32],41.2%
same,Activity,[33],17.8%
same,Activity,[34],100%
